Assays:
[1] = biological target: T1, human β3-adrenergic receptor (Homo sapiens, UniProt P13945); experiment: Test Case 1-B: human β3-adrenergic receptor agonist activity (cAMP-Screen, 96-well); format: cell-based; details: for Emax: 0.5 h, read-out: β3 receptor I.A.; for EC50 / β3 receptor I.A.: Test Case 1-B; for EC50: CHO cells, cAMP; for β3 receptor I.A.: maximum response of isoproterenol = 100%
T1 construct: A full-length human β3 gene is obtained from a human genomic library (made by Clontech) using this as the probe; expressed in transfected cells; host or cells: CHO (Chinese hamster ovary) cells, pcDNA3
Experimental: Measurement of Human β3-Adrenergic Receptor Agonist Activity
The human β3-adrenergic receptor agonist activity is measured using CHO (Chinese hamster ovary) cells transfected by a human β3 gene inserted in pcDNA3 (Invitrogen). […] A full-length human β3 gene is obtained from a human genomic library (made by Clontech) using this as the probe. These cells are cultured in Ham's F-12 medium containing 10% fetal calf serum and 400 μg/mL genectin (Invitrogen). These cells are sown in 96-well plates to make 2×10^4 cells/well. After culturing for approximately 20 hours, they are allowed to stand for 15 minutes in 80 μL of serum-free Ham's F-12 medium. After first dissolving the test compound by DMSO, it is serially diluted by Ham's F-12 containing 100 mmol/L HEPES and 1 mmol/L isobutylmethylxanthine, and 20 μL is added to the cells. After culturing for 30 minutes, the medium is removed, and 0.1 mL of the assay/lysis buffer contained in the cAMP-Screen kit (made by Applied Bioscience) is added and incubated for 30 minutes at 37° C. The cAMP in this cell lysate is assayed by the above cAMP-Screen kit.

[2] = biological target: T2, human β1-adrenergic receptor (Homo sapiens, UniProt P08588); experiment: Test Case 2-B: human β1-adrenergic receptor agonist activity; format: cell-based; details: for Emax: read-out: β1 receptor I.A.; for β1 receptor I.A.: Test Case 2-B, maximum response of isoproterenol = 100%
T2 construct: expressed in transfected cells; host or cells: CHO (Chinese hamster ovary) cells, pcDNA3
Experimental: Measurement of Human β1-Adrenergic Receptor Agonist Activity
The human β1-adrenergic receptor agonist activity is measured by the same method as in Test Case 1-B using CHO (Chinese hamster ovary) cells transfected by a human β1 gene inserted in pcDNA3 (Invitrogen).

[3] = biological target: T3, human β2-adrenergic receptor (Homo sapiens, UniProt P07550); experiment: Test Case 3-B: human β2-adrenergic receptor agonist activity; format: cell-based; details: for Emax: read-out: β2 receptor I.A.; for β2 receptor I.A.: Test Case 3-B, maximum response of isoproterenol = 100%
T3 construct: expressed in transfected cells; host or cells: CHO (Chinese hamster ovary) cells, pcDNA3
Experimental: Measurement of Human β2-Adrenergic Receptor Agonist Activity
The human β2-adrenergic receptor agonist activity is measured by the same method as in Test Case 1-B using CHO (Chinese hamster ovary) cells transfected by a human β2 gene inserted in pcDNA3 (Invitrogen).

[4] = biological target: T4, human α1A-adrenergic receptor (Homo sapiens, UniProt P35348); experiment: Test Case 4-A: human α1A-adrenergic receptor agonist activity (HEK293, Ca flux, Fura-2); format: cell-based; parameters: expressed in transfected cells; host or cells: HEK293 cells, pcDNA3.1; details: for Emax: HEK293, read-out: α1A receptor I.A.; for α1A receptor I.A.: Test Case 4-A, maximum response of norepinephrine = 100%, Table 4
T4 sequence (P35348 1-466): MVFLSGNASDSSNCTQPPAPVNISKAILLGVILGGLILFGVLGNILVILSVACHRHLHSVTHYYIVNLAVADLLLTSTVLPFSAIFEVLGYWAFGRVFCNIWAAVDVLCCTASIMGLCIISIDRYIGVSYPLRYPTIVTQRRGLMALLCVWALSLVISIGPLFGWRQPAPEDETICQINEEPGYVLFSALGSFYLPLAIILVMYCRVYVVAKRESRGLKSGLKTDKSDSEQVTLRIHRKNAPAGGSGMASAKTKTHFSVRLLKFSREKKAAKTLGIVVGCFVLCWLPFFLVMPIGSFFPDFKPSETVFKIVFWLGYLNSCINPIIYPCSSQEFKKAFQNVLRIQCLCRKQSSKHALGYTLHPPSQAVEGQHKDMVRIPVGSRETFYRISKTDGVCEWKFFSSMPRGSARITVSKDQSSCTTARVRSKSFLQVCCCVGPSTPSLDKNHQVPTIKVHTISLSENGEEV
Experimental: Measurement of Human α1A-Adrenergic Receptor Agonist Activity
The human α1A-adrenergic receptor agonist activity is measured using HEK293 cells transfected by a human α1A gene inserted in pcDNA3.1 (Invitrogen). […] After loading for 30 minutes in a CO2 incubator, the excess Fura-2AM is removed by washing twice with assay buffer. After preparing the centrifuged cells to make 5×10^6 cells/mL by assay buffer, 80 μL/well is dispensed into 96-well UV plates (made by Corning) to make cell plates. Sample plates with the test compound diluted 10-fold by assay buffer from 10^−5 to 10^−12 M and cell plates are set in an FDSS4000 (made by Hamamatsu Photonics). After preincubating for 180 seconds, measurement of fluorescence intensity (excitation wavelength 340 nm, 380 nm, measurement wavelength 500 nm) is begun at 2-second intervals. After approximately 30 seconds of measurement, 20 μL of test sample from a sample plate is added to the cell plate, and measurement is continued for another 270 seconds. The Ca flux caused by the test compound is calculated taking the difference in the maximum value of the fluorescence intensity ratio at 340 nm and 380 nm after adding the test compound and the fluorescence intensity ratio before adding the test compound as the peak height.

Male C57BL/6 Cr mice = experiment: Test Case 10: mouse piloerection test; format: in vivo; details: 10 mg/kg i.v., Score 0
Experimental: Male C57BL/6 Cr mice (Japan SLC) are used. The dissolved compound is administered rapidly via a caudal vein. The animal is placed on the observation stand 5, 15, 30, and 60 minutes after administration, and the state of piloerection is observed. The state of piloerection is evaluated by the following 7-level scoring system according to the examples by the method of Irwin (Psychopharmacologia 1968, 13; 222-257).
Scoring system: “Score 0”: No piloerection at all; “Score 1”: Slight piloerection (piloerection on part of the body such as the back or neck); “Score 2”: Moderate piloerection (piloerection over the entire body); “Score 3”: Marked piloerection (piloerection over the entire body, conspicuous to the extent that the skin can be seen).
“Score 0.5” is between “Score 0” and “Score 1” “Score 1.5” is between […]. “Score 2.5” is between “Score 2” and “Score 3.”

T1 sequence (P13945 whole entry): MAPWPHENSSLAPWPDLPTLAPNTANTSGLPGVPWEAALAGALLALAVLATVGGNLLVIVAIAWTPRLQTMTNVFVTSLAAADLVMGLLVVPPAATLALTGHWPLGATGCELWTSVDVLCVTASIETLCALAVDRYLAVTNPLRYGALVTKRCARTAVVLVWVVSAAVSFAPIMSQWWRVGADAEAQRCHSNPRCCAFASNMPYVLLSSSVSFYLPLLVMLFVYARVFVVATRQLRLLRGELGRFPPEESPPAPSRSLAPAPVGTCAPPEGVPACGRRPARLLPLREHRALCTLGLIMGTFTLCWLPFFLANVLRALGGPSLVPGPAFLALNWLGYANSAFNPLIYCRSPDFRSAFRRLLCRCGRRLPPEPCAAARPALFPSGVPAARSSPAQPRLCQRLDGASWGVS
T3 sequence (P07550 whole entry): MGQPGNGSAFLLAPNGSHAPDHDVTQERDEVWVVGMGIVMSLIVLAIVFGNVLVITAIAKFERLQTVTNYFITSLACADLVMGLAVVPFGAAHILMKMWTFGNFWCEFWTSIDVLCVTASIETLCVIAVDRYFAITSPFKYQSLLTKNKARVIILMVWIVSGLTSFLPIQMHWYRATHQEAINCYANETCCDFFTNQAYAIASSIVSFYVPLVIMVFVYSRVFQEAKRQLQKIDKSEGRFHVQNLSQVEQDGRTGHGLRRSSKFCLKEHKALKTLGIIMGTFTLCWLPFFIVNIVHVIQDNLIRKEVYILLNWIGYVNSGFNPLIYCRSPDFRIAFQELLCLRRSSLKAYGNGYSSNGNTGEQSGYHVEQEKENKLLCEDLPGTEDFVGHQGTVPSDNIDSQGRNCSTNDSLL
T2 sequence (P08588 whole entry): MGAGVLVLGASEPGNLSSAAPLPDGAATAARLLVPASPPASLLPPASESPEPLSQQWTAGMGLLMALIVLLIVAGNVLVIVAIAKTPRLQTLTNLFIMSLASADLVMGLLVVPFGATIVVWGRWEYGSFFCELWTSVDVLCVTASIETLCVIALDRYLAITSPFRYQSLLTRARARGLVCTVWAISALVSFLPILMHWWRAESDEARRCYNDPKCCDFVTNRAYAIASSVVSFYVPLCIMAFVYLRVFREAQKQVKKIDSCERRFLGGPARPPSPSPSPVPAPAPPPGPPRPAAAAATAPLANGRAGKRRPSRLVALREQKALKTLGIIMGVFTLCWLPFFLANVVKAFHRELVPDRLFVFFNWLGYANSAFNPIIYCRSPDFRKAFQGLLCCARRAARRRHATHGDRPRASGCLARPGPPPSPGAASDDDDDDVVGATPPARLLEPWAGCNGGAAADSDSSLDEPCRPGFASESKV

| Compound | Emax [1] [%] | EC50 [1] [nM] | Emax [2] [%] | Emax [3] [%] | Emax [4] [%] | number of experimental animals matching Score 0 (no piloerection) (Male C57BL/6 Cr mice; n=4, observation time 5 min) | number of experimental animals matching Score 0 (no piloerection) (Male C57BL/6 Cr mice; n=4, observation time 15 min) | number of experimental animals matching Score 0 (no piloerection) (Male C57BL/6 Cr mice; n=4, observation time 30 min) | number of experimental animals matching Score 0 (no piloerection) (Male C57BL/6 Cr mice; n=4, observation time 60 min) | β3 receptor I.A. [1] [%] | β1 receptor I.A. [2] [%] | β2 receptor I.A. [3] [%] | α1A receptor I.A. [4] [%] |
| --- | --- | --- | --- | --- | --- | --- | --- | --- | --- | --- | --- | --- | --- |
| Nc1cccc(S(=O)(=O)Nc2cccc([C@@H](O)CNCCOc3ccc4c(Cl)n[nH]c4c3)c2)c1 [ex153, (R)- ? -amino-N-(3-(2-(2-(3-chloroindazol-6-yloxy)-ethylamino)-1-hydroxyethyl)-phenyl) benzenesulfonamide] | 95 | 0.22 | 12 | 13 | 0 | – | – | – | – | – | – | – | – |
| CCc1n[nH]c2cc(OCCNC[C@H](O)c3cccc(NS(=O)(=O)c4cccc(C)c4)c3)ccc12 [ex126, (R)-N-(3-(2-(2-(3-ethylindazol-6-yloxy)ethylamino)-1-hydroxyethyl)phenyl)-3-methylbenzene-sulfonamide] | 85 | 14 | 8 | 1 | 0 | – | – | – | – | – | – | – | – |
| COc1n[nH]c2cc(OCCNC[C@H](O)c3cccc(NS(=O)(=O)c4cc(N)ccc4F)c3)ccc12 [ex6, (R)-5-amino-2-fluoro-N-(3-(1-hydroxy-2-(2-(3-methoxyindazol-6-yloxy)ethylamino)ethyl)phenyl)benzenesulfonamide] | 84 | 0.7 | 10 | 7 | 0 | 4 | 4 | 4 | 4 | – | – | – | – |
| CCc1n[nH]c2cc(OCCNC[C@H](O)c3cccc(NS(=O)(=O)c4cccc(N)c4)c3)ccc12 [ex118, (R)-3-amino-N-(3-(2-(2-(3-ethylindazol-6-yloxy)-ethylamino)-1-hydroxyethyl)-phenyl) benzenesulfonamide] | 77 | 0.25 | 13 | -1 | 0 | – | – | – | – | – | – | – | – |
| O=S(=O)(Nc1cccc([C@@H](O)CNCCOc2ccc3c(Cl)n[nH]c3c2)c1)C1CC1 [ex152] | 104 | 22 | 3 | 15 | 8 | – | – | – | – | – | – | – | – |
| Cc1n[nH]c2cc(OCCNC[C@H](O)c3cccc(NS(=O)(=O)c4ccccc4O)c3)ccc12 [ex241, (R)-2-hydroxy-N-(3-(1-hydroxy-2-(2-(3-methylindazol-6-yloxy)ethylamino)ethyl)phenyl)benzenesulfonamide] | 94 | 43 | 9 | 8 | 0 | – | – | – | – | – | – | – | – |
| COc1n[nH]c2cc(OCCNC[C@H](O)c3cccc(NS(=O)(=O)c4cccc(Cl)c4)c3)ccc12 [ex42, (R)-3-chloro-N-(3-(1-hydroxy-2-(2-(3-methoxyindazol-6-yloxy)ethylamino)ethyl)phenyl) benzenesulfonamide] | – | 3.8 | – | – | – | – | – | – | – | 83 | 4 | 0 | 0 |
| COc1cccc(S(=O)(=O)Nc2cccc([C@@H](O)CNCCOc3ccc4c(OC)n[nH]c4c3)c2)c1 [ex43, (R)-N-(3-(1-hydroxy-2-(2-(3-methoxyindazol-6-yloxy)ethylamino)ethyl)phenyl)-3-methoxybenzene-sulfonamide] | – | 15 | – | – | – | – | – | – | – | 65 | −2 | −5 | 0 |
| COc1n[nH]c2cc(OCCNC[C@H](O)c3cccc(NS(=O)(=O)c4cccc(Cl)c4)c3)ccc12 [ex13, (R)-3-chloro-N-(3-(1-hydroxy-2-(2-( ? - methoxyindazol-6-yloxy)ethylamino)ethyl)phenyl) benzenesulfonamide] | 82 | 9.4 | 4 | -4 | 0 | – | – | – | – | – | – | – | – |
| Cc1n[nH]c2cc(OCCNC[C@H](O)c3cccc(NS(=O)(=O)c4ccccc4N)c3)ccc12 [ex53, (R)-2-amino-N-(3-(1-hydroxy-2-(2-(3-methylindazol-6-yloxy)ethylamino)ethyl)phenyl) benzenesulfonamide] | 98 | 4.1 | 14 | 2 | 0 | – | – | – | – | – | – | – | – |
| Cc1n[nH]c2cc(OCCNC[C@H](O)c3cccc(NS(=O)(=O)c4cccc(O)c4)c3)ccc12 [ex236, (R)-3-hydroxy-N-(3-(1-hydroxy-2-(2-(3-methylindazol-6-yloxy)ethylamino)ethyl)phenyl)benzenesulfonamide] | 58 | 1 | 11 | 5 | 0 | – | – | – | – | – | – | – | – |
| Nc1cccc(S(=O)(=O)Nc2cccc([C@@H](O)CNCCOc3ccc4c(OC(F)F)n[nH]c4c3)c2)c1 [ex104] | 116 | 0.42 | 8 | 4 | 0 | – | – | – | – | – | – | – | – |
| COc1n[nH]c2cc(OCCNC[C@H](O)c3cccc(NS(=O)(=O)c4cccnc4)c3)ccc12 [ex12, (R)-N-(3-(1-hydroxy-2-(2-(3-methoxyindazol-6-yloxy)ethylamino)ethyl)phenyl)pyridine-3-sulfonamide] | 52 | 31 | 5 | 5 | 0 | – | – | – | – | – | – | – | – |
| CNc1cccc(S(=O)(=O)Nc2cccc([C@@H](O)CNCCOc3ccc4c(C)n[nH]c4c3)c2)c1 [ex239, (R)—N-(3-(1-hydroxy-2-(2-(3-methylindazol-6-yloxy)ethylamino)ethyl)phenyl)-3-(methylamino)benzenesulfonamide] | 108 | 16 | 15 | 2 | 0 | – | – | – | – | – | – | – | – |
